Experimental data reported in ChEMBL document CHEMBL3885861, “Open TG-GATES”.

Species on record: Rattus norvegicus
Assay: Open TG-GATES - Regimen: Daily Repeat
Format: toxicity, organism-based, Sprague-Dawley
Design: regimen Daily Repeat, gender Male, age 6 weeks
Details: in vivo, po, route gavage; for APTT / Bas / Eos / Fbg / Hb / Ht / Lym / MCH / MCHC / MCV / Mono / Neu / PT / Plat / RBC / Ret / WBC: tissue Blood; for KIDNEY_L / KIDNEY_R / KIDNEY_TOTAL: tissue Kidney; for LIVER: tissue Liver; for A/G / ALP / ALT / AST / BUN / CRE / Ca / Cl / DBIL / GLC / IP / K / LDH / Na / PL / RALB / TBIL / TC / TG / TP / gamma-GTP: tissue Plasma
[1] = 0 mg/kg, 72 h, dose level Control, time 3 day
[2] = 0 mg/kg, […], dose level Control, time 7 day
[3] = 0 mg/kg, […], dose level Control, time 14 day
[4] = 0 mg/kg, […], dose level Control, time 28 day
[5] = 20 mg/kg, 72 h, dose level Low, time 3 day
[6] = 20 mg/kg, […], dose level Low, time 7 day
[7] = 20 mg/kg, […], dose level Low, time 14 day
[8] = 20 mg/kg, […], dose level Low, time 28 day

## Cn1c(=O)c2[nH]cnc2n(C)c1=O.O [THEOPHYLLINE]
[1]
  TERMINAL_BW: 247 g
  APTT: 23.1 s
  Bas: 0%
  Eos: 0.8%
  Fbg: 314.4 mg/dL
  Hb: 13.2 g/dL
  Ht: 39.5%
  Lym: 79.4%
  MCH: 21.2 pg
  MCHC: 33.5%
  MCV: 63.2 fL
  Mono: 3.2%
  Neu: 15.2%
  PT: 15 s
  Plat: 114.7 x10_4/uL
  RBC: 625.4 x10_4/ul
  Ret: 7.3%
  WBC: 109 x10_2/uL
  KIDNEY_L: 1.1 g
  KIDNEY_R: 1.1 g
  KIDNEY_TOTAL: 2.2 g
  LIVER: 12.2 g
  A/G: 1.2
  ALP: 1800.8 IU/L
  ALT: 48.4 IU/L
  AST: 71.4 IU/L
  BUN: 17.6 mg/dL
  CRE: 0.2 mg/dL
  Ca: 10.7 mg/dL
  Cl: 105.8 meq/L
  DBIL: 0 mg/dL
  GLC: 203.8 mg/dL
  IP: 8.5 mg/dL
  K: 4.3 meq/L
  LDH: 183.6 IU/L
  Na: 141 meq/L
  PL: 156.6 mg/dL
  RALB: 3 g/dL
  TBIL: 0 mg/dL
  TC: 85 mg/dL
  TG: 96.2 mg/dL
  TP: 5.5 g/dL
  gamma-GTP: 1.6 IU/L
[2]
  TERMINAL_BW: 278.6 g
  APTT: 21.8 s
  Bas: 0%
  Eos: 1%
  Fbg: 305.4 mg/dL
  Hb: 13.9 g/dL
  Ht: 40.5%
  Lym: 77.8%
  MCH: 20.9 pg
  MCHC: 34.2%
  MCV: 61.2 fL
  Mono: 2.8%
  Neu: 17.4%
  PT: 15.8 s
  Plat: 112 x10_4/uL
  RBC: 662 x10_4/ul
  Ret: 6%
  WBC: 113.8 x10_2/uL
  KIDNEY_L: 1.2 g
  KIDNEY_R: 1.3 g
  KIDNEY_TOTAL: 2.5 g
  LIVER: 12.9 g
  A/G: 1.2
  ALP: 1566.8 IU/L
  ALT: 43.8 IU/L
  AST: 80.4 IU/L
  BUN: 20 mg/dL
  CRE: 0.2 mg/dL
  Ca: 10.3 mg/dL
  Cl: 106.6 meq/L
  DBIL: 0 mg/dL
  GLC: 212.2 mg/dL
  IP: 7.5 mg/dL
  K: 4.6 meq/L
  LDH: 253.2 IU/L
  Na: 141.4 meq/L
  PL: 145.2 mg/dL
  RALB: 3 g/dL
  TBIL: 0 mg/dL
  TC: 69.4 mg/dL
  TG: 106.2 mg/dL
  TP: 5.6 g/dL
  gamma-GTP: 1.8 IU/L
[3]
  TERMINAL_BW: 330.3 g
  APTT: 24.2 s
  Bas: 0%
  Eos: 0.8%
  Fbg: 324.6 mg/dL
  Hb: 14.5 g/dL
  Ht: 42.5%
  Lym: 79.2%
  MCH: 21 pg
  MCHC: 34.1%
  MCV: 61.5 fL
  Mono: 3%
  Neu: 15.2%
  PT: 15.6 s
  Plat: 114.6 x10_4/uL
  RBC: 691.8 x10_4/ul
  Ret: 4.4%
  WBC: 138.2 x10_2/uL
  KIDNEY_L: 1.3 g
  KIDNEY_R: 1.3 g
  KIDNEY_TOTAL: 2.7 g
  LIVER: 15.4 g
  A/G: 1.1
  ALP: 1434.6 IU/L
  ALT: 38.2 IU/L
  AST: 68.4 IU/L
  BUN: 18.6 mg/dL
  CRE: 0.2 mg/dL
  Ca: 10.3 mg/dL
  Cl: 107 meq/L
  DBIL: 0 mg/dL
  GLC: 188.2 mg/dL
  IP: 7.3 mg/dL
  K: 4.4 meq/L
  LDH: 184.4 IU/L
  Na: 142 meq/L
  PL: 149.2 mg/dL
  RALB: 3.1 g/dL
  TBIL: 0.004 mg/dL
  TC: 71.4 mg/dL
  TG: 135.4 mg/dL
  TP: 5.9 g/dL
  gamma-GTP: 2.6 IU/L
[4]
  TERMINAL_BW: 378.5 g
  APTT: 24.9 s
  Bas: 0%
  Eos: 1%
  Fbg: 303 mg/dL
  Hb: 14.8 g/dL
  Ht: 42.6%
  Lym: 80.2%
  MCH: 18.9 pg
  MCHC: 34.8%
  MCV: 54.6 fL
  Mono: 1.6%
  Neu: 15%
  PT: 16.2 s
  Plat: 98.8 x10_4/uL
  RBC: 783 x10_4/ul
  Ret: 2.7%
  WBC: 113.3 x10_2/uL
  KIDNEY_L: 1.4 g
  KIDNEY_R: 1.4 g
  KIDNEY_TOTAL: 2.8 g
  LIVER: 15.4 g
  A/G: 1
  ALP: 1140.2 IU/L
  ALT: 38.6 IU/L
  AST: 64.8 IU/L
  BUN: 18.2 mg/dL
  CRE: 0.2 mg/dL
  Ca: 10.3 mg/dL
  Cl: 106.4 meq/L
  DBIL: 0 mg/dL
  GLC: 204.6 mg/dL
  IP: 6.5 mg/dL
  K: 4.1 meq/L
  LDH: 132.2 IU/L
  Na: 142.4 meq/L
  PL: 140.6 mg/dL
  RALB: 3.1 g/dL
  TBIL: 0.01 mg/dL
  TC: 65 mg/dL
  TG: 145.6 mg/dL
  TP: 6.1 g/dL
  gamma-GTP: 2.8 IU/L
[5]
  TERMINAL_BW: 242.7 g
  APTT: 22.4 s
  Bas: 0%
  Eos: 1%
  Fbg: 305.4 mg/dL
  Hb: 13.4 g/dL
  Ht: 39.6%
  Lym: 76.6%
  MCH: 21.2 pg
  MCHC: 33.8%
  MCV: 62.6 fL
  Mono: 3.2%
  Neu: 18%
  PT: 15.5 s
  Plat: 119.5 x10_4/uL
  RBC: 632.4 x10_4/ul
  Ret: 5.9%
  WBC: 125.2 x10_2/uL
  KIDNEY_L: 1.1 g
  KIDNEY_R: 1.1 g
  KIDNEY_TOTAL: 2.1 g
  LIVER: 10.9 g
  A/G: 1.3
  ALP: 1574.4 IU/L
  ALT: 45.2 IU/L
  AST: 71.8 IU/L
  BUN: 15.4 mg/dL
  CRE: 0.2 mg/dL
  Ca: 10.6 mg/dL
  Cl: 106.8 meq/L
  DBIL: 0 mg/dL
  GLC: 194.8 mg/dL
  IP: 7.4 mg/dL
  K: 4.4 meq/L
  LDH: 167.2 IU/L
  Na: 142.4 meq/L
  PL: 132.6 mg/dL
  RALB: 3 g/dL
  TBIL: 0.004 mg/dL
  TC: 70 mg/dL
  TG: 97 mg/dL
  TP: 5.5 g/dL
  gamma-GTP: 1.6 IU/L
[6]
  TERMINAL_BW: 271.5 g
  APTT: 24 s
  Bas: 0%
  Eos: 1%
  Fbg: 312.6 mg/dL
  Hb: 14.2 g/dL
  Ht: 41.1%
  Lym: 80%
  MCH: 20.9 pg
  MCHC: 34.5%
  MCV: 60.5 fL
  Mono: 2.6%
  Neu: 14.4%
  PT: 15.4 s
  Plat: 111.8 x10_4/uL
  RBC: 679 x10_4/ul
  Ret: 5.3%
  WBC: 121.9 x10_2/uL
  KIDNEY_L: 1.1 g
  KIDNEY_R: 1.2 g
  KIDNEY_TOTAL: 2.3 g
  LIVER: 12.4 g
  A/G: 1.1
  ALP: 1498.6 IU/L
  ALT: 40 IU/L
  AST: 68.2 IU/L
  BUN: 19.2 mg/dL
  CRE: 0.2 mg/dL
  Ca: 10.3 mg/dL
  Cl: 106.2 meq/L
  DBIL: 0 mg/dL
  GLC: 185.4 mg/dL
  IP: 7.3 mg/dL
  K: 4.2 meq/L
  LDH: 184.6 IU/L
  Na: 142.2 meq/L
  PL: 150 mg/dL
  RALB: 3 g/dL
  TBIL: 0.004 mg/dL
  TC: 77.2 mg/dL
  TG: 106.2 mg/dL
  TP: 5.7 g/dL
  gamma-GTP: 1.8 IU/L
[7]
  TERMINAL_BW: 324.6 g
  APTT: 24.1 s
  Bas: 0%
  Eos: 1%
  Fbg: 333.4 mg/dL
  Hb: 14.4 g/dL
  Ht: 42.7%
  Lym: 80%
  MCH: 19.9 pg
  MCHC: 33.7%
  MCV: 59 fL
  Mono: 2.4%
  Neu: 14.6%
  PT: 15.3 s
  Plat: 110.9 x10_4/uL
  RBC: 724.8 x10_4/ul
  Ret: 4.9%
  WBC: 110 x10_2/uL
  KIDNEY_L: 1.3 g
  KIDNEY_R: 1.3 g
  KIDNEY_TOTAL: 2.6 g
  LIVER: 14.3 g
  A/G: 1.2
  ALP: 1256.2 IU/L
  ALT: 37 IU/L
  AST: 64 IU/L
  BUN: 17.8 mg/dL
  CRE: 0.2 mg/dL
  Ca: 10.3 mg/dL
  Cl: 106.4 meq/L
  DBIL: 0 mg/dL
  GLC: 177.6 mg/dL
  IP: 7.4 mg/dL
  K: 4.2 meq/L
  LDH: 140.8 IU/L
  Na: 141.8 meq/L
  PL: 152.2 mg/dL
  RALB: 3.1 g/dL
  TBIL: 0.008 mg/dL
  TC: 82.4 mg/dL
  TG: 92.4 mg/dL
  TP: 5.8 g/dL
  gamma-GTP: 2.6 IU/L
[8]
  TERMINAL_BW: 357.5 g
  APTT: 26.7 s
  Bas: 0%
  Eos: 1%
  Fbg: 333.2 mg/dL
  Hb: 15.4 g/dL
  Ht: 44.6%
  Lym: 83.6%
  MCH: 18.7 pg
  MCHC: 34.4%
  MCV: 54.4 fL
  Mono: 1.6%
  Neu: 12.8%
  PT: 15.8 s
  Plat: 108.7 x10_4/uL
  RBC: 820.8 x10_4/ul
  Ret: 2.5%
  WBC: 112.5 x10_2/uL
  KIDNEY_L: 1.3 g
  KIDNEY_R: 1.4 g
  KIDNEY_TOTAL: 2.8 g
  LIVER: 13.8 g
  A/G: 1.1
  ALP: 1031.2 IU/L
  ALT: 39.8 IU/L
  AST: 68.2 IU/L
  BUN: 16.6 mg/dL
  CRE: 0.2 mg/dL
  Ca: 10.1 mg/dL
  Cl: 107 meq/L
  DBIL: 0 mg/dL
  GLC: 192.2 mg/dL
  IP: 6.2 mg/dL
  K: 3.8 meq/L
  LDH: 134.6 IU/L
  Na: 143 meq/L
  PL: 137.6 mg/dL
  RALB: 3.2 g/dL
  TBIL: 0.016 mg/dL
  TC: 73.6 mg/dL
  TG: 97.6 mg/dL
  TP: 6.1 g/dL
  gamma-GTP: 2 IU/L
